According to the supplement of paper PMC10307832:

Assays:
Test in all cases: relative viability (nuclei count vs DMSO), 5 days (fraction); higher = more cells survive
IMD-0354 + Alpelisib = compound: O=C(Nc1cc(C(F)(F)F)cc(C(F)(F)F)c1)c1cc(Cl)ccc1O [IMD-0354] + Cc1nc(NC(=O)N2CCC[C@H]2C(N)=O)sc1-c1ccnc(C(C)(C)C(F)(F)F)c1 [Alpelisib] (partner 2 µM)
Summary of the method: (§1)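 Lung cancer cell lines in 1536-well plates got either a single drug or a fixed anchor-drug dose together with five library-drug doses (not always all listed) in √10 steps, by pin tool, on the day after seeding. Nuclei were counted after 5 days, and relative viability is the treated-to-vehicle ratio of nuclei counts. Values are medians of duplicate plates.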

CX-5461 + Vorinostat = compound: Cc1cnc(CNC(=O)c2c(=O)c3ccc(N4CCCN(C)CC4)nc3n3c2sc2ccccc23)cn1 [CX-5461] + O=C(CCCCCCC(=O)Nc1ccccc1)NO [Vorinostat] (partner 1 µM)
Summary of the method: as §1

CX-5461 + Decitabine = compound: Cc1cnc(CNC(=O)c2c(=O)c3ccc(N4CCCN(C)CC4)nc3n3c2sc2ccccc23)cn1 [CX-5461] + Nc1ncn([C@H]2C[C@H](O)[C@@H](CO)O2)c(=O)n1 [Decitabine] (partner 2 µM)
Summary of the method: as §1

IMD-0354 + Lapatinib = compound: O=C(Nc1cc(C(F)(F)F)cc(C(F)(F)F)c1)c1cc(Cl)ccc1O [IMD-0354] + CS(=O)(=O)CCNCc1ccc(-c2ccc3ncnc(Nc4ccc(OCc5cccc(F)c5)c(Cl)c4)c3c2)o1 [Lapatinib] (partner 2 µM)
Summary of the method: as §1

| Cell Line | relative viability (IMD-0354 + Alpelisib; first compound 0.04 µM) | relative viability (IMD-0354 + Alpelisib; first compound 0.1265 µM) | relative viability (IMD-0354 + Alpelisib; first compound 0.4 µM) | relative viability (IMD-0354 + Alpelisib; first compound 1.265 µM) | relative viability (IMD-0354 + Alpelisib; first compound 4 µM) | relative viability (CX-5461 + Vorinostat; first compound 0.01 µM) | relative viability (CX-5461 + Vorinostat; first compound 0.03162 µM) | relative viability (CX-5461 + Vorinostat; first compound 0.1 µM) | relative viability (CX-5461 + Vorinostat; first compound 0.3162 µM) | relative viability (CX-5461 + Vorinostat; first compound 1 µM) | relative viability (CX-5461 + Decitabine; first compound 0.01 µM) | relative viability (CX-5461 + Decitabine; first compound 0.03162 µM) | relative viability (CX-5461 + Decitabine; first compound 0.1 µM) | relative viability (CX-5461 + Decitabine; first compound 0.3162 µM) | relative viability (CX-5461 + Decitabine; first compound 1 µM) | relative viability (IMD-0354 + Lapatinib; first compound 0.04 µM) | relative viability (IMD-0354 + Lapatinib; first compound 0.1265 µM) | relative viability (IMD-0354 + Lapatinib; first compound 0.4 µM) | relative viability (IMD-0354 + Lapatinib; first compound 1.265 µM) | relative viability (IMD-0354 + Lapatinib; first compound 4 µM) |
| --- | --- | --- | --- | --- | --- | --- | --- | --- | --- | --- | --- | --- | --- | --- | --- | --- | --- | --- | --- | --- |
| NCI-H650 | 1.03 | 1.07 | 0.943 | 0.615 | 0.215 | 0.462 | 0.294 | 0.635 | 0.399 | 0.312 | 0.328 | 0.272 | 0.298 | 0.32 | 0.313 | 1.11 | 0.864 | 0.614 | 0.451 | 0.22 |
| NCI-H661 | 0.838 | 0.772 | 0.401 | 0.345 | 0.248 | 0.822 | 0.8 | 0.734 | 0.472 | 0.583 | 0.523 | 0.531 | 0.458 | 0.429 | 0.383 | 0.466 | 0.458 | 0.477 | 0.538 | 0.273 |
| NCI-H727 | 0.606 | 0.641 | 0.497 | 0.396 | 0.352 | 1.4 | 1.2 | 1.28 | 1.03 | 1.05 | 0.89 | 0.917 | 0.839 | 0.83 | 0.956 | 0.801 | 0.84 | 0.55 | 0.439 | 0.325 |
| NCI-H838 | 1.19 | 1.06 | 0.445 | 0.615 | 0.331 | 0.669 | 0.789 | 0.76 | 0.548 | 0.617 | 0.475 | 0.479 | 0.47 | 0.429 | 0.332 | 1.14 | 0.855 | 0.399 | 0.305 | 0.261 |
| NCI-H1355 | 1.07 | 0.692 | 0.736 | 0.561 | 0.222 | 0.711 | 0.736 | 0.625 | 0.432 | 0.43 | 0.356 | 0.34 | 0.395 | 0.371 | 0.348 | 1.27 | 1.16 | 0.829 | 0.213 | 0.21 |
| NCI-H1395 | 0.992 | 0.889 | 0.98 | 0.465 | 0.324 | 0.672 | 0.635 | 0.535 | 0.379 | 0.473 | 0.764 | 0.673 | 0.805 | 0.653 | 0.532 | 1.11 | 1.28 | 0.821 | 0.292 | 0.364 |
| NCI-H1437 | 1.24 | 1.07 | 0.711 | 0.219 | 0.239 | 0.942 | 0.871 | 0.791 | 0.858 | 0.749 | 0.603 | 0.556 | 0.545 | 0.51 | 0.435 | 0.86 | 0.69 | 0.317 | 0.122 | 0.194 |
| NCI-H1651 | 1.17 | 0.987 | 0.584 | 0.266 | 0.0691 | 0.55 | 0.552 | 0.546 | 0.566 | 0.194 | 0.598 | 0.554 | 0.452 | 0.588 | 0.158 | 0.904 | 0.803 | 0.402 | 0.136 | 0.131 |
